Test results taken from patent US12297203B2, “Pyrrolopyrimidine ITK inhibitors” (ACLARIS THERAPEUTICS, INC., priority 2018, dated 2025).

Key:
[1] = test system: JAK1/3 phosphorylation of its substrate, STAT5, at Y694; assay: JAK1/3 target modulation assay (IL-2 stimulated STAT5 Y694 phosphorylation in PBMC); assay type: cell-based; conditions: Homo sapiens, PBMC, Primary human peripheral blood mononuclear cells, IL-2 25 ng/mL; read-out: IL2-STAT5 Inh. IC50
Summary of the method: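 Human PBMCs preincubated with compound for 1 h at 37 °C, then stimulated with IL-2 (25 ng/mL final) for 5 min. Cells were lysed and phospho-STAT5a,b (Y694) measured by MSD electrochemiluminescence immunoassay, single-plex or multiplex with total STAT5a,b.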

[2] = biological target: JAK3 (Homo sapiens (Human), UniProt P52333); assay: JAK3 enzyme activity assay (Caliper mobility shift); assay type: biochemical; conditions: ATP at Km level; read-out: JAK3 Inh. IC50
Summary of the method: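 Caliper mobility-shift assay with 2.5 nM JAK3, […] and […] (Km level) in 20 mM HEPES pH 7.5, 10 mM MgCl2, 0.01% BSA, 0.0005% Tween-20, 2% DMSO. 11-point dose-response from […] 0.34 nM; IC50 by 4-parameter logistic fit of product/substrate signal.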

[3] = test system: ITK phosphorylation of its substrate, PLCγ1, at Y783; assay: ITK target modulation assay (PLCγ1 Y783 phosphorylation, anti-CD3 stimulated Jurkat T cells); assay type: cell-based; conditions: Homo sapiens, Jurkat, anti-CD3 Dynabeads stimulation, read-out: PLC-γ Inh. IC50
Summary of the method: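 Jurkat cells (400,000/well) were preincubated with compound for 1 h at 37 °C (0.1% DMSO final), then stimulated with anti-CD3 Dynabeads (bead:cell 2:1). Hypotonic lysates were dot-blotted and probed for phospho-PLCγ1 Y783 and total PLCγ1, with quantification by dual-channel infrared imaging.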

[4] = biological target: ITK (Homo sapiens (Human), UniProt Q08881); assay: ITK inhibitor binding potency (LanthaScreen competitive binding assay); conditions: read-out: ITK Inh. IC50
Summary of the method: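 TR-FRET tracer displacement: 10 nM GST-ITK, 2 nM Eu-anti-GST, 50 nM tracer-236 in HEPES pH 7.5, MgCl2, 2% DMSO; 11 points, 20 µM–0.34 nM. Run with or without 2 h compound–ITK preincubation before tracer; IC50 by 4-parameter fit of emission ratio.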

Sequence of JAK3 (P52333 781-1124): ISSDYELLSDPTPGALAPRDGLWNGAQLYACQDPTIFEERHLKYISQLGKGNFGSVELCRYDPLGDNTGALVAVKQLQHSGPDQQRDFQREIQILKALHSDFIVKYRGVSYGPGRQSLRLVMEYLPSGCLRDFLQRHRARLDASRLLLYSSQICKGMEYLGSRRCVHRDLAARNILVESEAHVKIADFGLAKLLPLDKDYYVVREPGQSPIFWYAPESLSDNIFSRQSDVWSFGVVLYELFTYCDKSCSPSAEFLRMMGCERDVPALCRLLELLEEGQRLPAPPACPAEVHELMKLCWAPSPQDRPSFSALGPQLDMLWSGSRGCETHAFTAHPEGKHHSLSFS
Sequence of ITK (Q08881 whole entry): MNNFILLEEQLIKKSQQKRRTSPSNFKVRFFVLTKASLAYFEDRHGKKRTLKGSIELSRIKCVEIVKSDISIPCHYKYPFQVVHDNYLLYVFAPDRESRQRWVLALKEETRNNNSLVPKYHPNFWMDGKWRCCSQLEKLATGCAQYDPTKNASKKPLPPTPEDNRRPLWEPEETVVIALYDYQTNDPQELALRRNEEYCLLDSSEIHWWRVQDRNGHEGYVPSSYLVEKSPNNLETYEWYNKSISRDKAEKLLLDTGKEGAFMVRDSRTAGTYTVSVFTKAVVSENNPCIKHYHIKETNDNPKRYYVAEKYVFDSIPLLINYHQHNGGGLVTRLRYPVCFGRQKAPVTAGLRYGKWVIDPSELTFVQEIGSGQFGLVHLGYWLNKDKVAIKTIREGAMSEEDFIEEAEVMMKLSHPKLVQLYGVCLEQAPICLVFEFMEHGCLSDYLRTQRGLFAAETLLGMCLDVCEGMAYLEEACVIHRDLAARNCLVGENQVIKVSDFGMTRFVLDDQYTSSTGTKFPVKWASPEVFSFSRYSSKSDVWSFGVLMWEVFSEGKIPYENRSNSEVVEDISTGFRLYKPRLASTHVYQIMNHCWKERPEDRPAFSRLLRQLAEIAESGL

| Structure (SMILES) | IC50 [1] | IC50 [2] | IC50 [3] | IC50 [4] |
| --- | --- | --- | --- | --- |
| C=CC(=O)N1CCC[C@@H](Nc2ncnc3[nH]cc(C4CC4(F)F)c23)C1 (stereo partly drawn) [Example 27, 1-((3R)-3-((5-(2,2-difluorocyclopropyl)-7H-pyrrolo[2,3-d]pyrimidin-4-yl)amino)piperidin-1-yl)prop-2-en-1-one] | 100 to 1000 nM | ≤ 10 nM | ≤ 100 nM | ≤ 10 nM |
| C=CC(=O)N1CCC[C@@H](Nc2ncnc3[nH]cc(C4CCCC4)c23)C1 [Example 28, (R)-1-(3-((5-cyclopentyl-7H-pyrrolo[2,3-d]pyrimidin-4-yl)amino)piperidin-1-yl)prop-2-en-1-one] | 100 to 1000 nM | ≤ 10 nM | ≤ 100 nM | ≤ 10 nM |
| C=CC(=O)N1CCC[C@@H](Nc2ncnc3[nH]cc(C4=CCCC4)c23)C1 [Example 29, (R)-1-(3-((5-(cyclopent-1-en-1-yl)-7H-pyrrolo[2,3-d]pyrimidin-4-yl)amino)piperidin-1-yl)prop-2-en-1-one] | 100 to 1000 nM | ≤ 10 nM | 100 to 1000 nM | ≤ 10 nM |
| C=CC(=O)N1C[C@H](Nc2ncnc3[nH]cc(C4CCCC4)c23)CC[C@@H]1C [Example 30, 1-((2S,5R)-5-((5-cyclopentyl-7H-pyrrolo[2,3-d]pyrimidin-4-yl)amino)-2-methylpiperidin-1-yl)prop-2-en-1-one] | ≤ 100 nM | ≤ 10 nM | ≤ 100 nM | ≤ 10 nM |
| C=CC(=O)N1C[C@H](Nc2ncnc3[nH]cc(C(=O)OC(C)(C)C)c23)CC[C@@H]1C [Example 31, tert-butyl 4-(((3R,6S)-1-acryloyl-6-methylpiperidin-3-yl)amino)-7H-pyrrolo[2,3-d]pyrimidine-5-carboxylate] | 100 to 1000 nM | ≤ 10 nM | 100 to 1000 nM | ≤ 10 nM |
| C=CC(=O)N1C[C@H](Nc2ncnc3[nH]cc(C(=O)C4CC4)c23)CC[C@@H]1C [Example 32, 1-((2S,5R)-5-((5-(cyclopropanecarbonyl)-7H-pyrrolo[2,3-d]pyrimidin-4-yl)amino)-2-methylpiperidin-1-yl)prop-2-en-1-one] | 100 to 1000 nM | ≤ 10 nM | 100 to 1000 nM | ≤ 10 nM |
| C=CC(=O)N1C[C@H](Nc2ccnc3[nH]cc(C(=O)C4CC4)c23)CC[C@@H]1C [Example 34, 1-((2S,5R)-5-((3-(cyclopropanecarbonyl)-1H-pyrrolo[2,3-b]pyridin-4-yl)amino)-2-methylpiperidin-1-yl)prop-2-en-1-one] | 100 to 1000 nM | ≤ 10 nM | ≤ 100 nM | ≤ 10 nM |
| C=CC(=O)N1C[C@H](Nc2ccnc3[nH]cc(CC4CC4)c23)CC[C@@H]1C [Example 35, 1-((2S,5R)-5-((3-(cyclopropylmethyl)-1H-pyrrolo[2,3-b]pyridin-4-yl)amino)-2-methylpiperidin-1-yl)prop-2-en-1-one] | 100 to 1000 nM | ≤ 10 nM | 100 to 1000 nM | ≤ 10 nM |
| C[C@H]1CC[C@@H](Nc2ncnc3[nH]cc(CC4CC4)c23)CN1C(=O)/C=C/CN(C)C [Example 37, (E)-1-((2S,5R)-5-((5-(cyclopropylmethyl)-7H-pyrrolo[2,3-d]pyrimidin-4-yl)amino)-2-methylpiperidin-1-yl)-4-(dimethylamino)but-2-en-1-one] | > 1000 nM | 10 to 100 nM | 100 to 1000 nM | ≤ 10 nM |
| C=CC(=O)N1CC(Nc2ncnc3[nH]cc(CC4CC4)c23)CCC1CC (stereo not drawn) [Example 38, 1-(5-((5-(cyclopropylmethyl)-7H-pyrrolo[2,3-d]pyrimidin-4-yl)amino)-2-ethylpiperidin-1-yl)prop-2-en-1-one] | 100 to 1000 nM | ≤ 10 nM | 100 to 1000 nM | ≤ 10 nM |
| C=CC(=O)N1CC(Nc2ncnc3[nH]cc(CC4CC4)c23)CCC1C(C)C (stereo not drawn) [Example 41, 1-(5-((5-(cyclopropylmethyl)-7H-pyrrolo[2,3-d]pyrimidin-4-yl)amino)-2-isopropylpiperidin-1-yl)prop-2-en-1-one] | > 1000 nM | 10 to 100 nM | 100 to 1000 nM | 10 to 100 nM |
| C=CC(=O)N1C[C@H](Nc2ncnc3[nH]cc(C4(C)CC4(F)F)c23)CC[C@@H]1C (stereo partly drawn) [Example 50, 1-((2S,5R)-5-((5-(2,2-difluoro-1-methylcyclopropyl)-7H-pyrrolo[2,3-d]pyrimidin-4-yl)amino)-2-methylpiperidin-1-yl)prop-2-en-1-one] | 100 to 1000 nM | ≤ 10 nM | ≤ 100 nM | ≤ 10 nM |
| C=CC(=O)N1CCC(Nc2cnc3[nH]cc(C(=O)OCC)c3c2)CC1 [Example 96, ethyl 5-((1-acryloylpiperidin-4-yl)amino)-1H-pyrrolo[2,3-b]pyridine-3-carboxylate] | 100 to 1000 nM | ≤ 10 nM | > 1000 nM | > 100 nM |
| C=CC(=O)N1CCC(Nc2cnc3[nH]cc(C(=O)OCC)c3n2)CC1 [Example 97, ethyl 2-((1-acryloylpiperidin-4-yl)amino)-5H-pyrrolo[2,3-b]pyrazine-7-carboxylate] | 100 to 1000 nM | ≤ 10 nM | > 1000 nM | > 100 nM |
| C=CC(=O)N1CCC(Nc2cnc3[nH]cc(C(=O)C4CC4)c3c2)CC1 [Example 98, 1-(4-((3-(cyclopropanecarbonyl)-1H-pyrrolo[2,3-b]pyridin-5-yl)amino)piperidin-1-yl)prop-2-en-1-one] | > 1000 nM | 10 to 100 nM | > 1000 nM | > 100 nM |
| C=CC(=O)N1CCC(Nc2cnc3[nH]cc(C(=O)C4CC4)c3n2)CC1 [Example 99, 1-(4-((7-(cyclopropanecarbonyl)-5H-pyrrolo[2,3-b]pyrazin-2-yl)amino)piperidin-1-yl)prop-2-en-1-one] | ≤ 100 nM | ≤ 10 nM | > 1000 nM | 10 to 100 nM |
| C=CC(=O)N1CCC(Nc2cnc3[nH]cc(C(=O)C4CCC4)c3n2)CC1 [Example 100, 1-(4-((7-(cyclobutanecarbonyl)-5H-pyrrolo[2,3-b]pyrazin-2-yl)amino)piperidin-1-yl)prop-2-en-1-one] | ≤ 100 nM | ≤ 10 nM | 100 to 1000 nM | 10 to 100 nM |
| C=CC(=O)N1CCC(Nc2cnc3[nH]cc(C(COC)C4CC4)c3c2)CC1 (stereo not drawn) [Example 101, 1-(4-((3-(1-cyclopropyl-2-methoxyethyl)-1H-pyrrolo[2,3-b]pyridin-5-yl)amino)piperidin-1-yl)prop-2-en-1-one] | > 1000 nM | > 100 nM | > 1000 nM | > 100 nM |
